Data: patent US20230125585A1, “DOSING PROTOCOLS AND REGIMENS FOR AMINOSTEROL TREATMENT” (Enterin, Inc., priority 2019, published 2023)
Where two headings read alike, the source gives them in different places.

Key:
[1] = short term placebo controlled trial, PD constipation; cited from earlier work
mouse stomach mRNA = test: Oral dosing of squalamine (ENT-01) in old mice, stomach transcriptome by RNAseq; type: in vivo
Excerpt: The present example evaluated the impact of oral dosing of squalamine (ENT-01) on the gastrointestinal (GI) tissue of old mice (78 weeks). […] After 2 weeks of dosing the animals were euthanized, and the GI tracts sectioned into stomach, duodenum, jejunum, ileum, caecum, colon, and rectum. The stomach tissues were then sent for histology, and the transcriptomes analyzed by RNAseq.
The dosing schedule used to determine the effect of orally administered squalamine and MSI-1436 on the GI tracts of young and old mice was as follows. Male C57Bl/6 mice, aged 20 and 78 weeks, were obtained from Jackson labs. Animals were exposed to 12 hr light dark cycles and provided Teklad standard mouse diet and water ad lib.
Animals were dosed once daily by oral gavage in the morning for a total of 14 days. Animals were fasted 3-4 hours prior to dosing and 1 hour following. The test article was dissolved in 0.5% hydroxypropylcellulose in water. On day 15 the animals were euthanized by CO2 asphyxiation, necropsied, and tissues prepared for histology and RNAseq analysis.
The GI tracts of the animals were sectioned into stomach, duodenum, jejunum, ileum, caecum, colon, and rectum. The tissues were then sent for histology, and the transcriptomes analyzed by RNAseq.

[2] = Absorption / oral bioavailability of aminosterols; type: in vivo; conditions: oral administration
[3] = Phase 2a (n = 34), drug related adverse events; type: in vivo, human
[4] = human, in vivo, 25 days
α-synuclein protein = α-synuclein protein (Homo sapiens, UniProt P37840); conditions: cited from earlier work
[5] = orally administered; mice with constipation due to overexpression of human αS; cited from earlier work
[6] = intravenous administration; cited from earlier work
[7] = Phase 2(b) study, aminosterol dosage and body position, Parkinson's disease patients
[8] = 15 patients with assessable MMSE improvement

SMILES: CCCCC(F)(F)[C@@]1(O)CC[C@H]2[C@@H](CC(=O)[C@@H]2CCCCCCC(=O)O)O1 [Lubiprostone]
- share of treated in whom effective [1]: about 50%

SMILES: CC(C)[C@@H](CC[C@@H](C)[C@H]1CC[C@H]2[C@@H]3[C@H](O)C[C@H]4C[C@@H](NCCCNCCCCN)CC[C@]4(C)[C@H]3CC[C@]12C)OS(=O)(=O)O [squalamine]
- Corneodesmosin mRNA % increase (mouse stomach mRNA; old + Ent-01 vs old mice): 94%
- Cornifelin mRNA % increase (mouse stomach mRNA; old + Ent-01 vs old mice): 261%
- Dermokine mRNA % increase (mouse stomach mRNA; old + Ent-01 vs old mice): 290%
- Filaggrin mRNA % increase (mouse stomach mRNA; old + Ent-01 vs old mice): 671%
- H19_imprinted_maternally_expressed_transcript mRNA % increase (mouse stomach mRNA; old + Ent-01 vs old mice): 656%
- Hornerin mRNA % increase (mouse stomach mRNA; old + Ent-01 vs old mice): 253%
- Loricrin mRNA % increase (mouse stomach mRNA; old + Ent-01 vs old mice): 381%
- Myoglobin mRNA % increase (mouse stomach mRNA; old + Ent-01 vs old mice): 437%
- Sciellin mRNA % increase (mouse stomach mRNA; old + Ent-01 vs old mice): 219%
- caspase_14 mRNA % increase (mouse stomach mRNA; old + Ent-01 vs old mice): 664%
- collagen_type_XVII_alpha_1 mRNA % increase (mouse stomach mRNA; old + Ent-01 vs old mice): 256%
- cystatin_E/M mRNA % increase (mouse stomach mRNA; old + Ent-01 vs old mice): 491%
- desmocollin_1 mRNA % increase (mouse stomach mRNA; old + Ent-01 vs old mice): 104%
- desmoglein_1_beta mRNA % increase (mouse stomach mRNA; old + Ent-01 vs old mice): 184%
- gap_junction_protein_beta_4 mRNA % increase (mouse stomach mRNA; old + Ent-01 vs old mice): 470%
- gap_junction_protein_beta_6 mRNA % increase (mouse stomach mRNA; old + Ent-01 vs old mice): 455%
- kallikrein_related-peptidase_7_(chymotryptic_stratum mRNA % increase) (mouse stomach mRNA; old + Ent-01 vs old mice): 847%
- keratin_1 mRNA % increase (mouse stomach mRNA; old + Ent-01 vs old mice): 425%
- keratin_10 mRNA % increase (mouse stomach mRNA; old + Ent-01 vs old mice): 610%
- keratinocyte_differentiation_associated_protein mRNA % increase (mouse stomach mRNA; old + Ent-01 vs old mice): 407%
- keratinocyte_expressed_proline-rich mRNA % increase (mouse stomach mRNA; old + Ent-01 vs old mice): 270%
- late_cornified_envelope_1A1 mRNA % increase (mouse stomach mRNA; old + Ent-01 vs old mice): 339%
- late_cornified_envelope_1A2 mRNA % increase (mouse stomach mRNA; old + Ent-01 vs old mice): 361%
- late_cornified_envelope_1B mRNA % increase (mouse stomach mRNA; old + Ent-01 vs old mice): 471%
- late_cornified_envelope_1C mRNA % increase (mouse stomach mRNA; old + Ent-01 vs old mice): 338%
- late_cornified_envelope_1E mRNA % increase (mouse stomach mRNA; old + Ent-01 vs old mice): 340%
- late_cornified_envelope_1F mRNA % increase (mouse stomach mRNA; old + Ent-01 vs old mice): 338%
- late_cornified_envelope_1G mRNA % increase (mouse stomach mRNA; old + Ent-01 vs old mice): 197%
- late_cornified_envelope_1H mRNA % increase (mouse stomach mRNA; old + Ent-01 vs old mice): 233%
- late_cornified_envelope_1I mRNA % increase (mouse stomach mRNA; old + Ent-01 vs old mice): 654%
- late_cornified_envelope_1J mRNA % increase (mouse stomach mRNA; old + Ent-01 vs old mice): 296%
- late_cornified_envelope_1L mRNA % increase (mouse stomach mRNA; old + Ent-01 vs old mice): 365%
- late_cornified_envelope_1M mRNA % increase (mouse stomach mRNA; old + Ent-01 vs old mice): 656%
- late_cornified_envelope_3C mRNA % increase (mouse stomach mRNA; old + Ent-01 vs old mice): 130%
- late_cornified_envelope_3E mRNA % increase (mouse stomach mRNA; old + Ent-01 vs old mice): 205%
- late_cornified_envelope_3F mRNA % increase (mouse stomach mRNA; old + Ent-01 vs old mice): 192%
- lectin_galactose_binding_soluble_7 mRNA % increase (mouse stomach mRNA; old + Ent-01 vs old mice): 481%
- myosin_binding_protein_C_slow-type mRNA % increase (mouse stomach mRNA; old + Ent-01 vs old mice): 209%
- myosin_heavy_polypeptide_1_skeletal_muscle mRNA % increase (mouse stomach mRNA; old + Ent-01 vs old mice): 289%
- myosin_heavy_polypeptide_8_skeletal_muscle mRNA % increase (mouse stomach mRNA; old + Ent-01 vs old mice): 371%
- myosin_light_chain_phosphorylatable_fast_skeletal mRNA % increase (mouse stomach mRNA; old + Ent-01 vs old mice): 295%
- myosin_light_polypeptide_3 mRNA % increase (mouse stomach mRNA; old + Ent-01 vs old mice): 747%
- myozenin_1 mRNA % increase (mouse stomach mRNA; old + Ent-01 vs old mice): 524%
- myozenin_2 mRNA % increase (mouse stomach mRNA; old + Ent-01 vs old mice): 341%
- titin-cap mRNA % increase (mouse stomach mRNA; old + Ent-01 vs old mice): 298%
- mRNA levels for all of the genes in Table 4 (mouse stomach mRNA; old mice after treatment with squalamine): significant increase
- absorption in blood [2]: less than 0.3%
- Drug related adverse event Diarrhea, Mild, % [3]: (35) %
- Drug related adverse event Diarrhea, Moderate, % [3]: (5.8) %
- Drug related adverse event Diarrhea, Severe, % [3]: (2.9) %
- Drug related adverse event Dizziness, Mild, % [3]: (20.5) %
- Drug related adverse event Dizziness, Moderate, % [3]: (2.9) %
- Drug related adverse event Nausea, Mild, % [3]: (47) %
- Drug related adverse event Nausea, Moderate, % [3]: (2.9) %
- Drug related adverse event Vomiting, Mild, % [3]: (5.8) %
- Drug related adverse event Diarrhea, Mild, % [4]: (2.7) %
- Drug related adverse event Diarrhea, Moderate, % [4]: (2.7) %
- Drug related adverse event Diarrhea, Severe, % [4]: (2.7) %
- Drug related adverse event Dizziness, Mild, % [4]: (3) %
- Drug related adverse event Nausea, Mild, % [4]: (6.3) %
- Drug related adverse event Nausea, Moderate, % [4]: (2.7) %
- Drug related adverse event Vomiting, Mild, % [4]: (2.7) %
- Drug related adverse event Vomiting, Moderate, % [4]: (2.7) %
- Unrelated adverse event Contusion*, Mild, % [4]: (2.1) %
- Unrelated adverse event Dizziness, Mild, % [4]: (4.2) %
- Unrelated adverse event Fall*, Mild, % [4]: (4.2) %
- Unrelated adverse event Fall*, Moderate, % [4]: (2.1) %
- Unrelated adverse event Pain*, Mild, % [4]: (2.1) %
- Unrelated adverse event Pain*, Moderate, % [4]: (2.1) %
- Unrelated adverse event Phlebotomy site irritation*, Mild, % [4]: (2.1) %
- Unrelated adverse event Rectal burning, Mild, % [4]: (2.1) %
- Unrelated adverse event Rib fracture*, Mild, % [4]: (2.1) %
- Unrelated adverse event Squamous cell Ca*, Mild, % [4]: (2.1) %
- Unrelated adverse event Syncope*, Moderate, % [4]: (2.1) %
- initiation of aggregation of the α-synuclein protein (α-synuclein protein): inhibit the initiation of aggregation
- gastrointestinal motility [5]: stimulates gastrointestinal motility
- gastrointestinal motility [6]: not associated with increased gastrointestinal motility
- patients with MMSE improvement of 3 or more points [7, 8]: 33%
- patients with MMSE improvement of 4 or more points [7, 8]: 20%
- patients with MMSE improvement of 5 or more points [7, 8]: 13%
- patients with MMSE improvement of 6 or more points [7, 8]: 1/15
- patients responding to drug treatment (increase in CSBM) ([7]; 29 patients with assessable bowel movements, 75 or 150 mg/daily, 25 days): About 80%
- hallucinations ([7]; Phase 2(b), PD patients): reduction in hallucinations
- sleep fragmentation ([7]; Phase 2(b), PD patients): decrease in sleep fragmentation
- total sleep time ([7]; Phase 2(b), PD patients): increase in total sleep time
- bowel function, MMSE scores, amount and quality of sleep, other neurological indices (UPDRS) ([7]; dose taken sitting or standing, compared to lying down): qualitative improvements
- Unrelated adverse event Flu-like symptoms*, Mild, % ([7]; n = 47): (6.3) %

SMILES: CC(C)[C@@H](CC[C@@H](C)[C@H]1CC[C@H]2[C@@H]3[C@H](O)C[C@H]4C[C@@H](NCCCNCCCCNCCCN)CC[C@]4(C)[C@H]3CC[C@]12C)OS(=O)(=O)O [aminosterol 1436]
- initiation of aggregation of the α-synuclein protein (α-synuclein protein): inhibit the initiation of aggregation
